Data taken from US20260015339A1, “CALIX[4]ARENES WITH HIGH ANTICANCER ACTIVITY” (UNIVERSITE GRENOBLE ALPES, priority 2023, published 2026).
≈ marks a conversion by molar mass, not a printed value.

Legend:
[1] = system: A549 human lung cancer cells; test: MTS cytotoxicity assay, combination with CuCl2, A549; details: Homo sapiens, A549, 72 h, read-out: percentage of cell viability
Protocol: A549 human lung cancer cells were seeded in 96-well plates together with the calix[4]arene of the formula (2) and CuCl2. Cells were grown in RPMI-1640 supplemented with GlutaMAX™ (Gibco™) and fetal calf serum (FCS, 10%) treated with a broad range of concentrations of the calix[4]arene of the formula (2) or/and CuCl2 from Merck. After 72 hours of treatment, the cytotoxicity was measured by means of the IC50 value, using the kit “CellTiter 96R AQuous One Solution Cell Proliferation Assay (MTS)” from Promega™. Following 30 minutes of incubation with the MTS reagent, the endpoint measurements were done in triplicate at 485 nm, using a fluorescence plate reader.

[2] = Ag^+ transport into liposomes with encapsulated BCS; details: after 100 s, silver gradient of 50 μM, 1:1000 transporter to lipid ratio, added from DMSO
Protocol: Liposomes with BCS encapsulated were prepared as described above in the part entitled “II—C—1—Determination of the transport of Cu^+by the examples of calix[4]arenes” and measurements were performed as described in this part.
A Ag^+ solution was prepared by dissolving AgNO3 in a phosphate buffer at 3.05 mM concentration. After the first 30 seconds of the experiment, 50 μL of the Ag^+ solution was added to 3 mL of liposomes, resulting in a silver gradient of 50 μM. The fluorescence level was monitored for 600 seconds after the addition of the copper solution.
When a solution of DMSO with the calix[4]arene of the formula (2) was added to the liposomes (5 μL, to obtain a 1:1000 transport to lipid ratio) the decrease in fluorescence intensity of BCS was much faster (F/F0=0.55 after 100 s) compared to when DMSO without calix[4]arene of the formula (2) (5 μL) was added (F/F0=0.85 after 100 s).

[3] = system: A549 human lung cancer cell line; test: Inhibition of A549 cell proliferation (cell count); type: cell-based; details: 2 μM, until 72 hours
Protocol: The inhibition of a A549 human lung cancer cell line proliferation by the calix[4]arene of the formula (2) was determined by exposure of said A549 human lung cancer cell line to a concentration of 2 μM of the calix[4]arene of the formula (2) until 72 hours. The absolute number of cells were counted in the treated and untreated conditions before treatment (N0) and after 72 hours (Nt).
The FIG. 1 is a graph showing: • the profile of the proliferation index Nt/N0 of the A549 cells after exposure with the calix[4]arene of the formula (2) with respect to the time (i.e. the curve entitled “calix[4]arene (2)”), • the profile of the proliferation index Nt/N0 of the A549 cells without any exposure with the calix[4]arene of the formula (2) with respect to the time (i.e. the curve entitled “untreated”).
“Nt” is number of cells at time “t” and “No” is number of cells before treatment.

[4] = system: Non-malignant MRC5-SVII cells; test: MTS cytotoxicity assay on MRC5-SVII; type: cell-based; details: 72 hours of treatment
Protocol: Cells were grown in Minimal Essential Medium—Non Essential Amino Acids (MEM NEAA) culture medium from Gibco™, supplemented with sodium pyruvate ([…]), and fetal calf serum (FCS, 10%) and treated with a broad range of concentrations of the 2nd comparative example of the formula (XI).

[5] = system: Staphylococcus aureus; test: Minimal inhibitory concentration, bacterial growth in 96 well plate; type: cell-based; details: SA, with 100 μM CuSO4
Protocol: (§1) The efficiency of a compound of interest on a bacterial strain is evaluated by measuring its minimal inhibitory concentration (hereafter abbreviated “MIC”). MICs are measured by following the bacterial growth in a 96 wells plate exposed to a range of concentrations of the compound of interest.
(§2) A small amount of the frozen bacteria (stored at −80° C. in glycerol) was mixed in 25 mL of Lysogeny broth (i.e. a nutritionally rich medium used for the growth of bacteria which comprises 10 g of tryptone, 5 g of yeast extract, 10 g of NaCl, and 1 L of distilled water; with the pH adjusted to 7.0 with 1 N NaOH; and autoclaved for 25 min at 120° C.) in a falcon tube and then placed in an incubation chamber at 180 rpm and 37° C. After 16 to 24 hours, 25 mL of Lysogeny broth was added to the growth media and placed back in the incubation chamber for two hours. The absorption of the resulting solution was measured at 600 nm (hereafter abbreviated “OD600”) using Lysogeny broth as blank and then the solution was diluted to 0.1±0.01.
(§3) 96 Well plates were filled with 20 μL of 1 mM CuSO4 solution, then 160 μL of growth media was added. Finally, 20 μL of DMSO solutions containing a range of concentrations of the tested calix[4]arene of the formula (2) was added. […] For each condition three wells were used. The top and bottom rows were used as control, the top row only contained Lysogeny broth and the bottom one contained the growth media, DMSO and CuSO4. The plates were placed in the incubator for 16 to 24 hours. The absorbance of each well was measured at 600 nm with a multiplate reader (Fluostar from Optima).
(§4) The ratio between the average absorption value of three wells (OD) with the same conditions minus the average of the 12 negative controls (OD(negative)) and the average of the 12 positive control (OD(positive)) minus the negative control yielded the growth value which was subtracted from one and multiplied by a hundred to give the inhibition percentage (Equation 1).
(§5) The MIC50 or MIC90 is defined by the lowest concentration for which the inhibition value is at/over 50 or 90%. For a given experimental conditions three rows are used in a plate. The whole process was also repeated three times to obtain triplicates. MIC values were the determined by the average values obtained.

[6] = system: Escherichia coli; test: as above; type: cell-based; details: E. coli, with 100 μM CuSO4
Protocol: as §1, §2, §3, §4, §5

[7] = system: vancomycin resistant enterococcus; test: as above; type: cell-based; details: VRE, with 100 μM CuSO4
Protocol: as §1, §2, §3, §4, §5

[8] = Cu^+ binding by 1H NMR titration; details: 1H NMR titration with Cu(MeCN)4BF4, CD3CN/CDCl3 4/1, 298 K
Protocol: Binding abilities and complexation constants of the examples of calix[4]arenes of the present invention and the comparative examples with Cu^+ were evaluated by ^1H NMR titrations at 298 K using copper(I)tetrakis(acetronitrile)tetrafluoroborate.
For example, for each separate calix[4]arene a stock solution of the tested calix[4]arene was prepared in a CD3CN/CDCl3, 4/1 mixture. Using this stock solution, a Cu(MeCN)4BF4 solution was prepared and added by steps of 0.25 equivalent of copper(I) up until 1 equivalent and then by steps of 0.5 equivalent until a total of at least 2 equivalents. ^1H NMR spectra were recorded at a 400 MHz spectrometer at 298 K for the stock solutions of the calix[4]arenes and after each addition of Cu(MeCN)4BF4.
Calix[4]arenes for which a gradual change of the chemical shifts of the ^1H NMR signals (>0.1 ppm for at least one of the signals) was observed upon addition of up to 4-5 equivalents of Cu(MeCN)4BF4 were considered to show weak binding.

CCCOc1c2cccc1Cc1cccc(c1OCc1nccn1C)Cc1cccc(c1OCCC)Cc1cccc(c1OCc1nccn1C)C2 [(2)]
viability at 0.1 µM [1]: 102%
viability at 0.5 µM [1]: 96.4%
viability at 1 µM [1]: 79.9%
viability at 1.5 µM [1]: 52.2%
F/F0 (fluorescence intensity of BCS) [2]: 0.55
proliferation index Nt/N0 (FIG. 1) [3]: clearly inhibits the proliferation
IC50 [4]: 1030 nM
MIC50 [5]: 0.8 µM (≈ 0.558 µg/mL)
MIC90 [5]: 1.6 µM (≈ 1.12 µg/mL)
MIC50 [6]: 0.8 µM (≈ 0.558 µg/mL)
MIC90 [6]: 1.6 µM (≈ 1.12 µg/mL)
MIC50 [7]: 0.8 µM (≈ 0.558 µg/mL)
MIC90 [7]: 1.6 µM (≈ 1.12 µg/mL)
Cu^+ binding [8]: Strong binding (means an affinity constant (Ka) equal or greater than 10^5 M^−1)
